The values that follow come from patent US4033969A, “Vincamine derivatives” (Agence Nationale de Valorisation de la Recherche (ANVAR), priority 1972, dated 1977).

Holding throughout (type): in vivo
The test system of one data set is curarized rat. Briefly: Electroencephalographic consequences of cerebral hypoxia induced by temporary asphyxia in rat. To be noted: for Cortical recovery time / Cortical resistance time: rat asphyxia, 5 min prior; for Cortical recovery time: saline 42.3 ± 7.3; for Cortical resistance time: saline 77.8 ± 2.9. An excerpt: 4. Electroencephalographic consequences of a cerebral hypoxia induced by temporary asphyxia in rat
The effects of an asphyxic cerebral hypoxia, obtained by a two-minute interruption of the artificial respiration of a curarized rat are investigated at the level of the electro-corticogram (recorded in fronto-parietal lead) by determining:
on the one hand the "cortical resistance" time, i.e., the period of time which elapses between the discontinuation of artificial respiration and the appearance in the recording of the "electric silence" (disappearance of cortical electrogenesis),
on the other hand, the "cortical recovery" time, i.e., the period of time which elapses between the resumption of artificial respiration and the reappearance of a cortical electrogenesis.
(§1) The test materials are administered intravenously 5 minutes prior to asphyxia. The results obtained in the treated animals are compared with those obtained in a lot of reference animals, according to Student's "t" method.

Another data set relates to curarized cat. Description: Electroencephalographic consequences of cerebral hypoxia induced by temporary asphyxia in cat. To be noted: for Cortical recovery time / Cortical resistance time: cat asphyxia, 5 min prior; for Cortical recovery time: saline 27.3 ± 2.3; for Cortical resistance time: saline 108 ± 5.6.
Source text: 5. Electroencephalographic consequences of cerebral hypoxia induced by temporary asphyxia in cat
The effects of an asphyxic cerebral hypoxia, obtained by temporary discontinuance of the artificial respiration of a curarized cat are investigated at the level of the electrocorticogram (recorded in parieto-occipital lead), by determining:
on the one hand, the "cortical resistance" time, i.e., the period of time which elapses between the discontinuance of the artificial respiration and the appearance in the recording of the "electric silence" (disappearance of cortical electrogenesis),
on the other hand, the "cortical recovery" time, i.e., the period of time which elapses between the resumption of artificial respiration and the reappearance of a cortical electrogenesis. The resumption of artificial respiration is effected in all cases 45 seconds after appearance of the cortical silence.
as §1

The nature of data set [1]: Acute toxicity in mice (i.v.). To be noted: mouse, in vivo, iv. As for the experimental part:
(§2) 1. Acute toxicity in mice
(§3) The dosage of test material which, on intravenous administration in mice causes the death of 50% of the test animals is determined (death rate is determined after 10 days of observation).

In data set [2] the test system is mice. Description: Survival time of mice under a confined atmosphere. To be noted: for ED50: Mus musculus, protected = survival time greater by at least 30% than reference animals, read-out: ED50 (protects 50% of the test animals). As for the experimental part: 2. Survival time of mice under a confined atmosphere
Mice are individually placed in sealed 250 ml glass jars. Survival time is measured taking respiratory failure as a criterion of death.
The test materials are administered as aqueous solutions:
either intraperitoneally, in which case the animals are submitted to the test 30 minutes after injection,
or orally, in which case the animals are submitted to the test 1.5 hour after administration.
The dosage of material (ED50) which protects 50% of the test animals is determined: is considered as protected, a mouse having a survival time greater by a factor of at least 30% with respect to the average survival time of the reference animals.

The subject of a further data set is spinal rat. Briefly: Electroencephalographic consequences of cerebral hypoxia induced by temporary ischemia in rat. To be noted: for Cortical recovery time / Cortical resistance time: rat ischemia, 5 min prior; for Cortical recovery time: saline 19.8 ± 1.3; for Cortical resistance time: saline 22.3 ± 0.6. As for the experimental part:
3. Electroencephalographic consequences of cerebral hypoxia induced by temporary ischemia in rat
In spinal rat, the effects of a temporary cerebral ischemic hypoxia obtained by ligation of the vertebral arteries and clamping, during 60 seconds, of the carotid arteries, are investigated at the level of the electrocorticogram (recorded in fronto-parietal lead). The following times are determined:
on the one hand, the "cortical resistance" time, i.e., the period of time which elapses between failure of the cerebral circulation and the appearance, in the recording, of the "dectric silence"disappearance of cortical electrogenesis), and
on the other hand, the "cortical recovery" time, i.e., the period of time which elapses between unclamping of the carotid arteries and the reappearance of a cortical electrogenesis.
The test materials are administered intravenously 5 minutes prior to ischemia. The results obtained in the treated animals are compared with those obtained in a lot of reference animals according to Student's "t" method.

In data set [3] the test system is mice. Description: Acute toxicity in mice (i.v.). To be noted: mice. How it is done: as §2, §3
Setting [4] is: 2.5 mg/kg i.v., n=6, mean ± standard deviation from mean.
The mark [5] stands for this setting: 2.5 mg/kg i.v., n=8, mean ± standard deviation from mean.
Where [6] appears, read: ip, 0.5 h, i.p., 30 min before test.

Read-outs that look alike come from different tables or passages of the source.

For the molecule `CC[C@]12CCCN3CCc4c(n(c5ccccc45)[C@@](O)(C(=O)OC)C1)[C@@H]32` (racemic) [Vincamine, (.-+.)-Vincamine], the Cortical recovery time with curarized rat (setting [4]) came to 55.5 ± 20.2 s; in the data set on curarized rat (5.0 mg/kg i.v., n=6) it was 32.8 ± 1.8 s; with curarized cat (setting [5]) it was 24.6 ± 3.4 s; in the data set on curarized cat (5 mg/kg i.v., n=8, (*) significant P <0.05 vs controls), 19.6 ± 1.4 s; in the data set with spinal rat (setting [4]), 21.8 ± 2.0 s; in the data set with spinal rat (5 mg/kg i.v., n=7) it was 19.9 ± 3.0 s. The Cortical resistance time with curarized rat (setting [4]) is 83.3 ± 6.4 s; in the data set on curarized rat (5.0 mg/kg i.v., n=6) it was 89.0 ± 7.6 s; with curarized cat (setting [5]), 101 ± 13.9 s; in the data set with curarized cat (5 mg/kg i.v., n=8) it was 101 ± 5.6 s; in the data set with spinal rat (setting [4]) it was 22.2 ± 1.2 s; in the data set with spinal rat (5 mg/kg i.v., n=7) it was 23.4 ± 0.9 s. Besides, the protective activity entry with curarized rat (rat, asphyxia, 2.5 and 5 mg/kg i.v.) is “free from any protective activity”; in the data set on curarized cat (cat, asphyxia, 5 mg/kg i.v. (tenfold dosage)), “apparent only at a tenfold dosage of 5 mg/kg i.v”; in the data set on spinal rat (rat, ischemia, 2.5 and 5 mg/kg i.v.), “free from any protective activity”. In addition, the LD50 at 240 h in data set [1] (mice, i.v., death rate after 10 days of observation) was found to be 62 mg/kg. In addition, the ED50 with mice [2] (setting [6]) worked out at 18 mg/kg; in the data set with mice [2] (po, 1.5 hour before test), 40 mg/kg. Moreover, the “Number of mice protected” value in the data set with mice [2] (i.p., 1 mg/kg, 30 min before test) is 0/6; with mice [2] (i.p., 5 mg/kg, 30 min before test) it was 1/6; with mice [2] (i.p., 25 mg/kg, 30 min before test) it was 4/6; in the data set on mice [2] (p.o., 25 mg/kg, 1.5 hour before test), 2/6; with mice [2] (p.o., 50 mg/kg, 1.5 hour before test), 4/6; with mice [2] (p.o., 100 mg/kg, 1.5 hour before test), 5/6.
In the case of `COC(=O)[C@@]1(O)C[C@@H]2CCCN3CCc4c(n1c1ccccc41)[C@H]23` (relative stereo) [Deethylvincamine, (±) 20-Deethyl-vincamine], the Cortical recovery time with curarized rat (0.5 mg/kg i.v., n=6) stood at 38.8 ± 5.9 s; in the data set on curarized rat (1 mg/kg i.v., n=7, (*) significant P<0.05 vs controls) it was 23.0 ± 5.0 s; in the data set on curarized cat (0.5 mg/kg i.v., n=6, (*) significant P <0.05 vs controls) it was 19.0 ± 2.0 s; in the data set on spinal rat (0.25 mg/kg i.v., n=6) it was 20.3 ± 2.7 s; in the data set with spinal rat (0.5 mg/kg i.v., n=6, (*) significant P < 0.05 vs controls), 14.3 ± 1.1 s. Moreover, the Cortical resistance time in the data set with curarized rat (0.5 mg/kg i.v., n=6) was 84.2 ± 4.5 s; in the data set on curarized rat (1 mg/kg i.v., n=7), 78.0 ± 5.6 s; in the data set on curarized cat (0.5 mg/kg i.v., n=6) it was 98 ± 10.8 s; in the data set with spinal rat (0.25 mg/kg i.v., n=6) it was 25.3 ± 1.2 s; with spinal rat (0.5 mg/kg i.v., n=6) it was 24.3 ± 1.6 s. In addition, the “protective activity (decrease of time required for resumption of cortical electrogenesis)” value is recorded as “marked protective activity” in the data set on curarized rat (rat, asphyxia, 1 mg/kg i.v.); “exhibits a protective activity” in the data set with curarized cat (cat, asphyxia, 0.5 mg/kg i.v.); “marked protective activity” in the data set on spinal rat (rat, ischemia, 0.5 mg/kg i.v.). The same molecule showed an LD50 at 240 h in data set [1] of 40 mg/kg. For the same molecule, the “acute toxicity compared with vincamine” value with mice [3] is “substantially of the same order of magnitude as that of vincamine”. The median effective dose (ED50) with mice [2] (setting [6]) came to 8 mg/kg; with mice [2] (po, 1.5 hour before test) it was 24.5 mg/kg. Further, the “Number of mice protected” value in the data set on mice [2] (i.p., 3 mg/kg, 30 min before test) is given as 1/6; in the data set on mice [2] (i.p., 9 mg/kg, 30 min before test), 3/6; in the data set with mice [2] (i.p., 27 mg/kg, 30 min before test) it was 6/6; with mice [2] (p.o., 7.5 mg/kg, 1.5 hour before test) it was 0/6; in the data set with mice [2] (p.o., 15 mg/kg, 1.5 hour before test), 1/6; with mice [2] (p.o., 30 mg/kg, 1.5 hour before test), 4/6. Also, the “protective activity (increase of the survival time)” value in the data set on mice [2] (mice, confined atmosphere, i.p. and p.o., compared with vincamine) was “markedly superior to that of vincamine”.

In general, LD50 refers to the dose at which mortality reaches 50%. High values mean lower toxicity, low ones greater toxicity. One may read the ED50 as the dose at which the effect has come halfway, by size or by number of responders.
